Where a name gives a salt, the structure may show the parent alone.
tested on: Acinetobacter baumannii ATCC 17961; assay: Antimicrobial susceptibility testing: 90% growth inhibitory concentration (IC90) determination; assay type: cell-based; settings: ATCC17961, Acinetobacter baumannii ATCC 17961, Iso-Sensitest broth, read-out: ATCC 17961 IC90
Method in brief: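 Growth was followed kinetically by OD600 at 20-min intervals for 16 h at 35±2 °C, with ~5×10^5 CFU/ml in Iso-Sensitest broth. Compounds were tested as twofold dilutions (e.g. 50–0.097 μM final). The concentration giving 90% inhibition of log-phase growth was reported.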

IC90 [nM]	Structure (SMILES)
64	Cn1c(-c2cn([C@@H]3CC3(F)F)nc2C(F)(F)F)cnc1C(=O)Nc1ccc(C(=O)N[C@H]2[C@@H]3CN(C(=O)N[C@@H]4CNC[C@H]4O)C[C@@H]32)c(Cl)c1 [Example 181, (1S,5R)-6-[[2-chloro-4-[[5-[1-[(1R)-2,2-difluorocyclopropyl]-3-(trifluoromethyl)pyrazol-4-yl]-1-methyl-imidazole-2-carbonyl]amino]benzoyl]amino]-N-[(3R,4R)-4-hydroxypyrrolidin-3-yl]-3-azabicyclo[3.1.0]hexane-3-carboxamide; Hydrochloride]
110	Cn1c(-c2cn([C@H]3CC3(F)F)nc2C(F)(F)F)cnc1C(=O)Nc1ccc(C(=O)N[C@H]2[C@@H]3CN(C(=O)N[C@@H]4CNC[C@H]4O)C[C@@H]32)c(Cl)c1 [Example 182, (1S,5R)-6-[[2-chloro-4-[[5-[1-[(1S)-2,2-difluorocyclopropyl]-3-(trifluoromethyl)pyrazol-4-yl]-1-methyl-imidazole-2-carbonyl]amino]benzoyl]amino]-N-[(3R,4R)-4-hydroxypyrrolidin-3-yl]-3-azabicyclo[3.1.0]hexane-3-carboxamide]
136	Cn1c(-c2cn(C3CC3(F)F)nc2C(F)(F)F)cnc1C(=O)Nc1ccc(C(=O)N[C@H]2[C@@H]3CN(C(=O)N4CCNCC4)C[C@@H]32)c(Cl)c1 (stereo partly drawn) [Example 184, N-(3-chloro-4-(((1R,5S,6s)-3-(piperazine-1-carbonyl)-3-azabicyclo[3.1.0]hexan-6-yl)carbamoyl)phenyl)-5-(1-(2,2-difluorocyclopropyl)-3-(trifluoromethyl)-1H-pyrazol-4-yl)-1-methyl-1H-imidazole-2-carboxamide]
148	C=C(F)Cn1cc(-c2cnc(C(=O)Nc3ccc(C(=O)NCCCCCN)c(Cl)c3)n2C)c(C(F)(F)F)n1 [Example 185, N-(4-((5-aminopentyl)carbamoyl)-3-chlorophenyl)-5-(1-(2-fluoroallyl)-3-(trifluoromethyl)-1H-pyrazol-4-yl)-1-methyl-1H-imidazole-2-carboxamide hydrochloride]
151	Cn1c(-c2cn(C3CC3)nc2C(F)(F)F)cnc1C(=O)Nc1ccc(C(=O)NCCCCCCN)c(Cl)c1 [Example 187, N-(4-((6-aminohexyl)carbamoyl)-3-chlorophenyl)-5-(1-cyclopropyl-3-(trifluoromethyl)-1H-pyrazol-4-yl)-1-methyl-1H-imidazole-2-carboxamide hydrochloride]
152	Cn1c(-c2cn(CC(F)F)nc2C(F)(F)F)cnc1C(=O)Nc1ccc(S(=O)(=O)N2CCNCC2)c(Cl)c1 [Example 188, N-(3-chloro-4-(piperazin-1-ylsulfonyl)phenyl)-5-(1-(2,2-difluoroethyl)-3-(trifluoromethyl)-1H-pyrazol-4-yl)-1-methyl-1H-imidazole-2-carboxamide hydrochloride]
173	CN(CCCCN)C(=O)c1ccc(NC(=O)c2ncc(-c3cn(C4CC4)nc3C(F)(F)F)n2C)cc1Cl [Example 190, N-(4-((4-aminobutyl)(methyl)carbamoyl)-3-chlorophenyl)-5-(1-cyclopropyl-3-(trifluoromethyl)-1H-pyrazol-4-yl)-1-methyl-1H-imidazole-2-carboxamide hydrochloride]
176	Cn1c(-c2cn(C3CC3)nc2C(F)(F)F)cnc1C(=O)Nc1ccc(C(=O)N2CCC(CCN)CC2)c(Cl)c1 [Example 191, N-(4-(4-(2-aminoethyl)piperidine-1-carbonyl)-3-chlorophenyl)-5-(1-cyclopropyl-3-(trifluoromethyl)-1H-pyrazol-4-yl)-1-methyl-1H-imidazole-2-carboxamide formate]
188	Cn1c(-c2cn(C3CC3(F)F)nc2C(F)(F)F)cnc1C(=O)Nc1ccc(C(=O)NC2CC3(CC(N)C3)C2)c(Cl)c1 (stereo not shown) [Example 193, N-(4-((6-aminospiro[3.3]heptan-2-yl)carbamoyl)-3-chlorophenyl)-5-(1-(2,2-difluorocyclopropyl)-3-(trifluoromethyl)-1H-pyrazol-4-yl)-1-methyl-1H-imidazole-2-carboxamide formate]
193	Cn1c(-c2cn(CC3CC3)nc2C(F)(F)F)cnc1C(=O)Nc1ccc(C(=O)N2CCN(C(=O)[C@H]3[C@@H]4CNC[C@@H]43)CC2)c(F)c1 [Example 194, rac-N-(4-(4-((1R,5S,6r)-3-azabicyclo[3.1.0]hexane-6-carbonyl)piperazine-1-carbonyl)-3-fluorophenyl)-5-(1-(cyclopropylmethyl)-3-(trifluoromethyl)-1H-pyrazol-4-yl)-1-methyl-1H-imidazole-2-carboxamide hydrochloride]
202	Cn1c(-c2cn(C3CC3)nc2C(F)(F)F)cnc1C(=O)Nc1ccc(C(=O)N2CC[C@H](CN)C2)c(Cl)c1 [Example 195, (R)-N-(4-(3-(aminomethyl)pyrrolidine-1-carbonyl)-3-chlorophenyl)-5-(1-cyclopropyl-3-(trifluoromethyl)-1H-pyrazol-4-yl)-1-methyl-1H-imidazole-2-carboxamide hydrochloride]
202	Cn1c(-c2cn(C3CC3(F)F)nc2C(F)(F)F)cnc1C(=O)Nc1ccc(C(=O)NCC2CC3CNCC3C2)c(Cl)c1 (stereo not shown) [Example 196, N-(3-chloro-4-(((octahydrocyclopenta[c]pyrrol-5-yl)methyl)carbamoyl)phenyl)-5-(1-(2,2-difluorocyclopropyl)-3-(trifluoromethyl)-1H-pyrazol-4-yl)-1-methyl-1H-imidazole-2-carboxamide formate]
202	Cn1c(-c2cn(C3CC3)nc2C(F)(F)F)cnc1C(=O)Nc1ccc(C(=O)N2CCC(C3CNC3)CC2)c(Cl)c1 [Example 197, N-(4-(4-(azetidin-3-yl)piperidine-1-carbonyl)-3-chlorophenyl)-5-(1-cyclopropyl-3-(trifluoromethyl)-1H-pyrazol-4-yl)-1-methyl-1H-imidazole-2-carboxamide formate]
207	Cn1c(-c2cn(CC(F)F)nc2C(F)(F)F)cnc1C(=O)Nc1ccc(S(=O)(=O)N2CCN(C(=O)[C@H]3C[C@H](O)CN3)CC2)c(Cl)c1 [Example 198, N-(3-chloro-4-((4-((2R,4S)-4-hydroxypyrrolidine-2-carbonyl)piperazin-1-yl)sulfonyl)phenyl)-5-(1-(2,2-difluoroethyl)-3-(trifluoromethyl)-1H-pyrazol-4-yl)-1-methyl-1H-imidazole-2-carboxamide hydrochloride]
213	C=C(C)Cn1cc(-c2cnc(C(=O)Nc3ccc(C(=O)NCCCCN)c(Cl)c3)n2C)c(C(F)(F)F)n1 [Example 199, N-(4-((4-aminobutyl)carbamoyl)-3-chlorophenyl)-1-methyl-5-(1-(2-methylallyl)-3-(trifluoromethyl)-1H-pyrazol-4-yl)-1H-imidazole-2-carboxamide tris(2,2,2-trifluoroacetate)]
215	Cn1c(-c2cn(C3CC3)nc2C(F)(F)F)cnc1C(=O)Nc1ccc(C(=O)N2CCN(C(=O)CN)CC2)c(Cl)c1 [Example 200, N-(3-chloro-4-(4-glycylpiperazine-1-carbonyl)phenyl)-5-(1-cyclopropyl-3-(trifluoromethyl)-1H-pyrazol-4-yl)-1-methyl-1H-imidazole-2-carboxamide hydrochloride]
216	Cn1c(-c2cn(C3CC3(F)F)nc2C(F)(F)F)cnc1C(=O)Nc1ccc(C(=O)N2CCC(F)(CN)CC2)c(Cl)c1 (stereo not shown) [Example 201, N-(4-(4-(aminomethyl)-4-fluoropiperidine-1-carbonyl)-3-chlorophenyl)-5-(1-(2,2-difluorocyclopropyl)-3-(trifluoromethyl)-1H-pyrazol-4-yl)-1-methyl-1H-imidazole-2-carboxamide formate]
216	Cn1c(-c2cn(CC3CCC3)nc2C(F)(F)F)cnc1C(=O)Nc1ccc(C(=O)N2CCN(C(=O)CN)CC2)c(Cl)c1 [Example 202, N-(3-chloro-4-(4-glycylpiperazine-1-carbonyl)phenyl)-5-(1-(cyclobutylmethyl)-3-(trifluoromethyl)-1H-pyrazol-4-yl)-1-methyl-1H-imidazole-2-carboxamide hydrochloride]
223	Cn1c(-c2cn(C3CC3(F)F)nc2C(F)(F)F)cnc1C(=O)Nc1ccc(N2CCCC2=O)cc1 (stereo not shown) [Example 204, 5-(1-(2,2-difluorocyclopropyl)-3-(trifluoromethyl)-1H-pyrazol-4-yl)-1-methyl-N-(4-(2-oxopyrrolidin-1-yl)phenyl)-1H-imidazole-2-carboxamide]
224	C=C(C)Cn1cc(-c2cnc(C(=O)Nc3ccc(C(=O)NCCCCCN)c(Cl)c3)n2C)c(C(F)(F)F)n1 [Example 205, N-(4-((5-aminopentyl)carbamoyl)-3-chlorophenyl)-1-methyl-5-(1-(2-methylallyl)-3-(trifluoromethyl)-1H-pyrazol-4-yl)-1H-imidazole-2-carboxamide hydrochloride]

Structure (SMILES)	IC90 [nM]
Cn1c(-c2cn(CC3CC3)nc2C(F)(F)F)cnc1C(=O)Nc1ccc(C(=O)N2CCN(C(=O)N[C@H]3C[C@@H](N)C3)CC2)c(Cl)c1 [Example 203, rac-N-((1s,3s)-3-aminocyclobutyl)-4-(2-chloro-4-(5-(1-(cyclopropylmethyl)-3-(trifluoromethyl)-1H-pyrazol-4-yl)-1-methyl-1H-imidazole-2-carboxamido)benzoyl)piperazine-1-carboxamide]	222

same assay, conditions: Acinetobacter baumannii, ATCC17961, read-out: ATCC 17961 IC90, Acinetobacter baumannii ATCC 17961, Iso-Sensitest broth

Structure (SMILES)	IC90 [nM]
Cn1c(-c2cn([C@H]3CC3(F)F)nc2C(F)(F)F)cnc1C(=O)Nc1ccc(C(=O)N[C@H]2[C@@H]3CN(C(=O)N[C@H]4CNC[C@@H]4O)C[C@@H]32)c(Cl)c1 [Example 183, (1S,5R)-6-[[2-chloro-4-[[5-[1-[(1S)-2,2-difluorocyclopropyl]-3-(trifluoromethyl)pyrazol-4-yl]-1-methyl-imidazole-2-carbonyl]amino]benzoyl]amino]-N-[(3S,4S)-4-hydroxypyrrolidin-3-yl]-3-azabicyclo[3.1.0]hexane-3-carboxamide; Hydrochloride]	170
